Publication PMC5650372 (Oncotarget, 2017)

Tests used:
[1] = tested on: pATM S1981 and pNbs1 S343 in HT29 and MDA-MB-436 cells; test: Immunoblotting of intact cells with bleomycin; type: cell-based, human; conditions: 5 μM with 1.5 mU/mL bleomycin, 2 or 12 hours
[2] = tested on: NHEJ in Cal-51 cells; test: Cellular NHEJ assay with GFP reporter gene; type: cell-based, human; conditions: 1 μM
Method: (§1) deficient cell growth in vitro […]
(§2) incorporated in the corresponding no inhibitor control mTOR, DNA-PK and PI3K-alpha assays were to determine percent inhibition. An IC50 value was then performed as reported previously. estimated.
(§3) ATM and ATR assay and IC50 determination Cellular NHEJ assay
(§4) HA-ATM and FLAG-ATR (HA-labeled ATM, and The experimental design is illustrated in FLAG-labeled ATR) were each transiently expressed in Supplementary Figure 4. Cal-51 breast cancer cells HEK293 cells (293FT cells, Invitrogen Cat: R700-07) were separately transfected with pEGFP plasmid (6085-using Lipofectamine as transfection reagent. Cells were 1, Clontech, Mountain View, CA) digested with either harvested 6 days post transfection and spun down to EcoRI (to measure NHEJ) or StuI (to measure transfection separate cells from media. Cells were then lysed using a efficiency) using a Amaxa cell line nuclearfector kit V lysis buffer (50 mM Tris buffer, (Tris(hydroxylmethyl)- (CCA-1003, Lonza). Immediately after the transfection, aminomethane, pH 7.5), 100 mM NaCl, 50 mM βGOP, the cells were treated with DMSO or compounds at 10% Glycerol, 0.5% Tween 20, 1 mM EDTA, 25 mM indicated concentrations for 24 hours and GFP-positive sodium fluoride (NaF), 20 nM microcystine, 2 mM cells were counted under a fluorescent microscope. […]

[3] = tested on: pDNA-PK S2056 in NCI-H441 cells; test: Western blot quantitation of pDNA-PK S2056; type: cell-based, human
Method: The cell lysates were subjected to SDS-PAGE and immunoblotting with indicated antibodies. […] The pDNA-PK bands were quantified by Odyssey imaging software (LI-COR, Lincoln, NE) and normalized to total DNA-PK. IC50 values were determined by Excelfit (London, UK).

[4] = target: T1, DNA-PKcs, XRCC4 and DNA ligase IV on DNA (Homo sapiens, UniProt P78527); test: DNA end binding assay (MCF7 nuclear extract); type: biochemical; conditions: 5 μM, MCF7 nuclear extract, 10, 30, 60 minutes
T1 construct: endogenous in cells; host or cells: MCF7 nuclear extract
Description: One kb of DNA fragment, including an EcoRI sequence in the middle, was amplified by PCR using pEGFP as a template and a pair of biotinylated EGFP primers (5′-biotin-[…]-3′ and 5′-biotin-[…]-3′: Valuegene, San Diego, CA). The amplified DNA fragment was cleaved by EcoRI to produce two 0.5 kb biotinylated DNA fragments, and was purified using the QIAquick PCR purification kit (Qiagen). […] An aliquot of the reaction was removed at each time point to separate the supernatant and the beads. The supernatant was subjected to SDS-PAGE and immunoblotting with indicated antibodies. The beads were washed twice with 250 μL of IP buffer (25 mM Hepes-KOH, pH 7.5, 100 mM NaCl, 20% glycerol, 5 mM EDTA, 1 mM DTT, 0.05% Nonidet P-40, 10 mM NaF, and protease inhibitor mixture) and subjected to SDS-PAGE and immunoblotting with indicated antibodies.

[5] = tested on: NHEJ in intact cells of different cell lines; test: Cellular NHEJ assay, summary over cell lines; type: cell-based; conditions: Homo sapiens; range over different cell lines (Table 1); read-out: potency against NHEJ in intact cells
Method: as §1, §2, §3, §4

[6] = tested on: pS6 S235/236 in NCI-H441 cells; test: Western blot quantitation of pS6 S235/236 (mTORC1 biomarker); type: cell-based; conditions: Homo sapiens; NCI-H441, presence of bleomycin, 2 hrs, n=3; read-out: IC50 of pS6 S235/236 inhibition
[7] = tested on: NHEJ in HCT116 colorectal cancer cells; test: 384-well image-based cellular NHEJ assay; type: cell-based; conditions: Homo sapiens, HCT-116; HCT116, n=3
Description: as §3
as §4, with “microscope. NHEJ phenylmethylsulfonylfluoride (PMSF) and protease activity was calculated by the number of GFP-positive inhibitor cocktail) followed by sonication 3 times and a cells in cells transfected with pEGFP-EcoRI divided by final spin at 20,000 rpm for 30 minutes to generate a clear that in cells transfected with pEGFP-StuI, multiplied by lysate. To perform the immunoprecipitation, enzymes were 100.” for “microscope.”
(§5) or FLAG tags. Beads plus enzymes were then washed 3 developed. Different cell lines were transfected using times with lysis buffer and spun down at 1000 rpm for the procedure described above and subsequently seeded 1 minute. Beads plus enzymes were resuspended in lysis into 384-well plates at optimized density for individual buffer and kept at 4°C until assay. Assays for ATM and cell lines. Cells were then treated with compounds at ATR were conducted in a 33P radioactive assay format. increasing concentrations. GFP+ cells were imaged Assay buffer contained the following reagents: 1 mg/mL and quantitated using the IncuCyte (Essen Bioscience, GST-p53 (glutathione S-transferase–p53 fusion protein) Ann Arbor, MI). NHEJ activity was then normalized substrate (expressed in-house), 20 μg/mL calf thymus to the DMSO control and fitted to the Sigmoidal Dose-DNA activator (Sigma), 100 μg/mL BSA, 200 μM EGTA Response Model (IDBS XLFit Model 205; London, UK)

[8] = tested on: NHEJ in MDA-MB-231 breast cancer cells; test: 384-well image-based cellular NHEJ assay; type: cell-based; conditions: Homo sapiens; MDA-MB-231, n=3
Description: as §3
as §4, with “microscope. NHEJ phenylmethylsulfonylfluoride (PMSF) and protease activity was calculated by the number of GFP-positive inhibitor cocktail) followed by sonication 3 times and a cells in cells transfected with pEGFP-EcoRI divided by final spin at 20,000 rpm for 30 minutes to generate a clear that in cells transfected with pEGFP-StuI, multiplied by lysate. To perform the immunoprecipitation, enzymes were 100.” for “microscope.”
as §5

[9] = tested on: NCI-H1975 and SW1573 cells; test: Clonogenic assay alone or with etoposide; type: cell-based, human
Method: Media were changed every three days. Plates were incubated for a total of about two weeks then fixed and stained using the DIFF QUIK staining kit. Colonies were imaged and counted.

SMILES: CCN1C(=O)CNc2ncc(-c3ccc(-c4nc[nH]n4)nc3C)nc21 [CC-115, 1-ethyl-7-(2-methyl-6-(1H-1,2,4-triazol-3-yl)pyridin-3yl)-3,4-dihydropyrazino[2,3-b]pyrazin-2(1H)-one]
- ATM activity (pATM S1981 and pNbs1 S343) [1]: significantly inhibited
- GFP-positive cells (pEGFP-EcoRI) [2]: 1.25%
- GFP-positive cells (pEGFP-StuI) ([2]; DMSO 25.71%): 10.47%
- IC50 ([3]; Homo sapiens, NCI-H441, presence of bleomycin, 2 hrs, n=3, read-out: IC50 of pDNA-PK S2056 inhibition): 2600 ± 450 nM
- cellular activity against DNA-PK weaker than against mTOR kinase ([3]; NCI-H441): ~16 fold
- DNA-PKcs, XRCC4 and DNA ligase IV bound to DNA over time [4]: retained from 10 minutes through the end of the reaction at 60 minutes
- IC50 [5]: 1000 to 7000 nM
- IC50 [6]: 160 ± 10 nM
- IC50 [7]: 6350 ± 2980 nM
- IC50 [8]: 2160 ± 910 nM
- combination with 6.8 μM etoposide on colony formation greater than additive ([9]; 0.1 μM compound, 4 hours): not
- combination with 6.8 μM etoposide on colony formation ([9]; 10 μM compound, 4 hours): synergistic effect
- effect on cell survival, single agent ([9]; 4 hours treatment alone): minimal effect on cell survival
